Assays:
[1] = In vitro microsomal metabolic stability assay, rat; format: in vitro ADME; details: rat liver microsomes 0.25 mg/mL, 1.0 μM compound, NADPH
Procedure: (§1) Materials. Rat, Dog, Monkey and Human liver microsomes (20 mg/mL) were obtained from Xenotech, LLC (Lenexa, Kans.). P-nicotinamide adenine dinucleotide phosphate, reduced form (NADPH), magnesium chloride (MgCl2), and dimethyl sulfoxide (DMSO) were purchased from Sigma-Aldrich.
(§2) Methods. […] The 10 mM stock solutions were diluted to 100 μM in DMSO. In each cluster polypropylene tube, 190.7 μL of 100 mM phosphate buffer, pH 7.4 was added, then 2.5 μL of liver mocrosomes (20 mg/mL, rat, dog, monkey or human) was added, then a 2 μL aliquot of the 100 μM test compound was added, and the mixture was pre-warmed for 10 minutes. Reactions were initiated by addition of 4.8 μL of pre-warmed NADPH solution (100 mM in 100 mM phosphate buffer). The final reaction volume was 200 μL and contained 0.25 mg/mL rat, dog, monkey or human liver microsomes, 1.0 μM test compound, and 2.4 mM NADPH in 0.1 M potassium phosphate buffer, pH 7.4. The reaction mixtures were incubated at 37° C., and the reactions were quenched at 0, 15, 30 and 60 minutes by adding 200 μL of ice-cold quench solution (ACN:MeOH:0.1% formic acid in water 2:2:1) containing internal standard, n=3 per time point. The tubes were centrifuged and supernatants were analyzed for amounts of the test compound remaining by LC-MS/MS. The HPLC system included a Phenomenex Luna C8 column, 3 micron, 2 mm diameter×30 mm long eluted with a gradient mobile phase consisting of 0.1% formic acid in water or in acetonitrile. The analytes were detected by MS/MS with Electrospray Ionization (ESI) in the mode of multiple reaction monitoring (MRM). The injection volume was 10 μL.

[2] = In vitro microsomal metabolic stability assay, human; format: in vitro ADME; details: human liver microsomes 0.25 mg/mL, 1.0 μM compound, NADPH
Procedure: as §1, §2

[3] = In vitro microsomal metabolic stability assay, dog; format: in vitro ADME; details: dog liver microsomes 0.25 mg/mL, 1.0 μM compound, NADPH
Procedure: as §1, §2

[4] = In vivo pharmacokinetic study, rat IV; design: species or system Male Sprague Dawley rats; details: male, Sprague Dawley, plasma, rat IV bolus, cassette, nominal 0.5 mg/kg
Procedure: General Procedures. Concentrations of the test compounds in plasma were determined using a high performance liquid chromatography/tandem mass spectrometry (HPLC/MS/MS) method. The test compounds along with the internal standard (IS) were extracted from plasma (20 μL) by direct protein precipitation with acetonitrile (1:25 ratio of plasma/acetonitrile). After centrifugation, the supernatant extract (10 μL) was injected onto the LC/MS/MS system. The HPLC system included a Phenomenex Luna C8 column, 3 micron, 2 mm diameter×30 mm long eluted with a gradient mobile phase consisting of 0.1% formic acid in water or in acetonitrile. The analytes were detected by MS/MS with Electrospray Ionization (ESI) in the mode of multiple reaction monitoring (MRM). The lower limit of quantitation (LLOQ) was 1.00 ng/mL. The linear range of the assay was from 1 to 3000 ng/mL. The assay accuracy was within 20% of the nominal values.
Plasma concentration-time profiles of the test compounds were analyzed by noncompartmental pharmacokinetic methods using PK module in Watson, Version 7.4.2 (Thermo Scientific). Pharmacokinetic parameters including AUCa11, AUC0-∞, C0, Cl, Vss and t1/2 were determined.
Descriptive statistical data of plasma concentrations and pharmacokinetic parameter estimates were calculated, including the mean, standard deviation (SD), and coefficient of variation (% CV) using Microsoft Excel 2010.
Rat IV Study. Compounds 7 and 10 were administered simultaneously in a single intravenous bolus to Male Sprague Dawley rats (n=3) via jugular cannula. The nominal dose of each compound was 0.5 mg/kg. The cassette dosing solution was formulated in D5W with additives Animals had free access to food and water before and after dosing. Blood samples (approximately 0.25 mL each) were collected via a carotid artery catheter prior to dosing and at 0 (predose), 5 min, 10 min, 0.25, 0.5, 1, 2, 4, 8, 12, 24 hours post dose. Each blood sample was collected into a tube that was kept on wet ice and contained potassium EDTA as the anticoagulant. Plasma was separated and stored at approximately −70° C. until analysis.
Plasma samples and dosing solutions were analyzed using a liquid chromatography/tandem mass spectrometry (LC/MS/MS) method to determine the concentrations of Compounds 7 and 10 with a lower limit of quantitation (LLOQ) of 1.00 ng/mL. The average plasma concentrations of Compounds 7 and 10 are plotted in FIG. 5 and are also presented in tabular form in Table 5.
Plasma concentration vs. time data were subjected to noncompartmental pharmacokinetic (PK) analysis. To determined the measured dose of each compound, the dose formulation (50 μL) was aliquoted into a cluster tube at the time of dosing. Then 450 μL of DMSO was added to the tube to dilute it 10×. Then the diluted dosing solution was spiked into rat blank plasma with 100× dilution. The resulting plasma sample was analyzed along with the plasma samples collected from rats that were dosed with the compounds, using the same LC/MS/MS method.

[5] = In vitro microsomal metabolic stability assay, monkey; format: in vitro ADME; details: monkey liver microsomes 0.25 mg/mL, 1.0 μM compound, NADPH
Procedure: as §1, §2

human NaV 1.8 = biological target: T1, human NaV 1.8 (Homo sapiens, UniProt Q9Y5Y9); assay: E-VIPR assay for NaV inhibition; format: cell-based; details: HEK cells expressing human NaV 1.8, E-VIPR
T1 construct: expressed in transfected cells; host or cells: HEK cells, grown under blasticidin selection; KIR2.1 BacMam virus added before seeding
From the text: Sodium ion channels are voltage-dependent proteins that can be activated by inducing membrane voltage changes by applying electric fields. […] The instrument comprises a microtiter plate handler, an optical system for exciting the coumarin dye while simultaneously recording the coumarin and oxonol emissions, a waveform generator, a current- or voltage-controlled amplifier, and parallel electrode pairs that are inserted into assay plate wells. Under integrated computer control, this instrument passes user-programmed electrical stimulus protocols to cells within the wells of the microtiter plate.
The solution was made by adding 10% Pluronic F127 stock equal to combined volumes of CC2-DMPE and DiSBAC6(3).
Then 25 μL per well from compound plate was transferred to each cell plate.
A pre-stimulus recording was performed for 0.5 seconds to obtain the un-stimulated intensities baseline. The stimulatory waveform was followed by 0.5 seconds of post-stimulation recording to examine the relaxation to the resting state.

[6] = In vitro hepatocyte assay: prodrug conversion to parent compound; format: in vitro ADME, human; details: for half-life at 0.25 µM: cryopreserved human hepatocytes in suspension, cryopreserved human hepatocytes 0.625 million cells/mL, 37° C., Compounds 20 and 13 co-incubated, read-out: t1/2 in human hepatocytes; for conversion of prodrug to parent compound / % remaining: human hepatocytes; for conversion of prodrug to parent compound: LC-MS/MS, Compound 20 to Compound 10, Compound 13 to Compound 7
Procedure: Materials. Cryopreserved human hepatocytes and Cryopreserved Hepatocytes Recovery Medium (CHRM™) were purchased from Life Technologies (Carlsbad, Calif.). Gibco™ Leibovitz's L-15 Medium was purchased from Fisher Scientific (Waltham, Mass.).
Methods. 10 mM stock solutions containing Compound 20 and Compound 13 were prepared in DMSO. Equal volumes of the two 10 mM stock solutions were mixed to form a combination stock solution containing Compound 20 and Compound 13 in concentrations of 5 mM each. The 5 mM combination stock solution was diluted to a concentration of 50 μM of each compound in DMSO (“50 μM combination stock”). Cryopreserved human hepatocytes were thawed in CHRM™ medium and prepared as a suspension in incubation medium (L-15 Medium with supplements containing glucose, HEPES buffer and NaHCO3), with the final cell concentration of 0.625 million cells/mL. In a 48 well plate, 1 μL of the 50 μM combination stock and then 199 μL of hepatocyte suspension (0.625 million cells/mL) were added to each well. The plate was covered and incubated at 37° C. in an incubator with gentle shaking (50 rpm). The reactions were quenched at 0, 0.25, 0.5, 1 and 2 hours by adding 200 μL of ice-cold quench solution (ACN:MeOH:0.1% aqueous formic acid, 2:2:1) containing internal standard (n=3 per time point). […] LC-MS/MS analysis was conducted using a Phenomenex Luna C8 column (3 micron, 2 mm diameter×30 mm long, at room temperature) eluted with a gradient consisting of mobile phases of 0.1% formic acid in water and 0.1% formic acid in acetonitrile at a total flow rate of 0.6 mL/min and a total run time of 4.5 minutes. The analytes were detected by MS/MS with Electrospray Ionization (ESI) in the mode of multiple reaction monitoring (MRM). The injection volume was 10 μL.

T1 sequence (Q9Y5Y9 whole entry): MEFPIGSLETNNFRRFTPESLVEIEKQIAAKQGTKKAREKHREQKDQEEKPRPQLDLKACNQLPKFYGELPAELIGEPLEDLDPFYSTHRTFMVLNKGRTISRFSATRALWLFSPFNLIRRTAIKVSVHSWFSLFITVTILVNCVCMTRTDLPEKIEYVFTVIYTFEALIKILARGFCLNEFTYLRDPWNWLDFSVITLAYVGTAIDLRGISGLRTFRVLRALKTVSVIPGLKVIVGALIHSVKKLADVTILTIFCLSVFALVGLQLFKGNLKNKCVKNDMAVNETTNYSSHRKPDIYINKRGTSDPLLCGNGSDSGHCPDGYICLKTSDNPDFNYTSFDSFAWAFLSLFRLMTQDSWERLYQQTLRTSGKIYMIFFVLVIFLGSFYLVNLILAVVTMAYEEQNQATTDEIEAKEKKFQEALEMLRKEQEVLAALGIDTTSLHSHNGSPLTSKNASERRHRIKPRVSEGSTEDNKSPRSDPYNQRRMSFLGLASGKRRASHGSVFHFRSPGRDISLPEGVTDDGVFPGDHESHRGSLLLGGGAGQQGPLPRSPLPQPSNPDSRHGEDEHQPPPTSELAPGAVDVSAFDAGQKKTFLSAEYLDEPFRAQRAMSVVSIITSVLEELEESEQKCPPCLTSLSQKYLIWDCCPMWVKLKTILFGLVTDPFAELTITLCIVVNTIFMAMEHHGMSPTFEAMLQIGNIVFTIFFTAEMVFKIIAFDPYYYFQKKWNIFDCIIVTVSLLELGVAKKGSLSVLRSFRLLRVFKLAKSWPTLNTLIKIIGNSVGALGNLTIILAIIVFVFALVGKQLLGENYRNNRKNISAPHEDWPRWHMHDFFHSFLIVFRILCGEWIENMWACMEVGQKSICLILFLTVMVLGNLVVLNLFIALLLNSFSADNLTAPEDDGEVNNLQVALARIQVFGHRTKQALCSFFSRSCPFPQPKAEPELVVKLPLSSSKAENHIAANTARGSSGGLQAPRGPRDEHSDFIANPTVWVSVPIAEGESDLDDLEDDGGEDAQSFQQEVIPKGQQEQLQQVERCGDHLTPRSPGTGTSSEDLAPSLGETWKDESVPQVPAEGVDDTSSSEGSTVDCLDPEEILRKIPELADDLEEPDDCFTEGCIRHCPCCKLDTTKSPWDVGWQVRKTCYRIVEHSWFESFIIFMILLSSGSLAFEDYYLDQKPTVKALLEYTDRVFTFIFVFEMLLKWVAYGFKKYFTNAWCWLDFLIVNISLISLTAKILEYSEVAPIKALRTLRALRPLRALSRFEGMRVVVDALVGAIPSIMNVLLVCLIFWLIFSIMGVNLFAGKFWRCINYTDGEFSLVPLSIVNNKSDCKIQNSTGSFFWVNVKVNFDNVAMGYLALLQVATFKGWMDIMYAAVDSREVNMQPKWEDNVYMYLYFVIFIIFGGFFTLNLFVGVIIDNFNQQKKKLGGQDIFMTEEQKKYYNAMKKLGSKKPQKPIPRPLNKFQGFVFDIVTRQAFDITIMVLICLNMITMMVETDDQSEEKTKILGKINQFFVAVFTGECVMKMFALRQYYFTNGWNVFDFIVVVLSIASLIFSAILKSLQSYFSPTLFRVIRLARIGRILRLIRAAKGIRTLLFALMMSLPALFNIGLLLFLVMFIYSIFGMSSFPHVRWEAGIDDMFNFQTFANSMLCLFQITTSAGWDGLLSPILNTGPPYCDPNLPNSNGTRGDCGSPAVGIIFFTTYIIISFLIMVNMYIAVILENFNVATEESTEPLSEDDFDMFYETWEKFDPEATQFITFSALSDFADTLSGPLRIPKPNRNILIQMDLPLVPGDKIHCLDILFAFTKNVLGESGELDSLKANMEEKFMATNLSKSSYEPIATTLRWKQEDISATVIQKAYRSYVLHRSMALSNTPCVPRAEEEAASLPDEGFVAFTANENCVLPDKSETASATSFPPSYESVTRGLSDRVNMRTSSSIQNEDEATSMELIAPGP

In the case of `Cc1cc(F)ccc1Oc1cc(C(F)(F)F)ccc1C(=O)Nc1cc[nH]c(=O)c1` [Compound 10, 2-(4-fluoro-2-methylphenoxy)-N-(2-oxo-1,2-dihydropyridin-4-yl)-4-(trifluoromethyl)benzamide, reference compound], the “% remaining” value ([1]; 0 min) is reported as 100%, the “% remaining” value ([1]; 15 min) is reported as 108% and the “% remaining” value ([1]; 30 min) is reported as 102%. For the same compound, the “% remaining” value ([1]; 60 min) was 87.4%, the “% remaining” value ([2]; 0 min) was 100% and the “% remaining” value ([2]; 15 min) was 110%. The “% remaining” value ([2]; 30 min) was 105%, the “% remaining” value ([2]; 60 min) was 106% and the “% remaining” value ([3]; 0 min) was 100%. The “% remaining” value ([3]; 15 min) was 85.9%, the “% remaining” value ([3]; 30 min) was 85.4% and the “% remaining” value ([3]; 60 min) was 85.7%. The concentration at 0.083 h ([4]; 0.083 hours) was 391 ng/mL, the concentration at 0.167 h ([4]; 0.167 hours) was 349 ng/mL and the concentration at 0.25 h ([4]; 0.25 hours) was 316 ng/mL. For the same compound, the concentration at 0.5 h ([4]; 0.5 hours) was 239 ng/mL, the concentration at 1 h ([4]; 1 hour) was 174 ng/mL and the concentration at 2 h ([4]; 2 hours) was 111 ng/mL. For the same compound, the concentration at 4 h ([4]; 4 hours) was 51.6 ng/mL, the concentration at 8 h ([4]; 8 hours) was 14.3 ng/mL and the concentration at 12 h ([4]; 12 hours) was 4.27 ng/mL. The AUC ([4]; noncompartmental analysis) was 415 ng·h/mL, the AUC(0-inf) ([4]; noncompartmental analysis) was 422 ng·h/mL and the C0 ([4]; noncompartmental analysis) was 245 ng/mL. It also gave a clearance ([4]; noncompartmental analysis) of 22.1 mL/min/kg, a half-life ([4]; noncompartmental analysis) of 2.2 h and a Vd ([4]; noncompartmental analysis, read-out: Vss) of 3.4 L/kg. The “% remaining” value ([5]; 0 min) was 100%, the “% remaining” value ([5]; 15 min) was 96.4% and the “% remaining” value ([5]; 30 min) was 92.4%. For the same compound, the “% remaining” value ([5]; 60 min) was 91.4%.
For `[2H]C([2H])([2H])c1cc(F)ccc1Oc1cc(C(F)(F)F)ccc1C(=O)Nc1ccn(COP(=O)(O)O)c(=O)c1` [Compound 13, (4-(2-(4-fluoro-2-(methyl-d3)phenoxy)-4-(trifluoromethyl)benzamido)-2-oxopyridin-1(2H)-yl)methyl dihydrogen phosphate], the IC50 (human NaV 1.8; 11 point dose response, top dose 3 μM, read-out: Nav1.8 IC50) was 1.2 µM, the “Nav1.8 Max % Activity” value (human NaV 1.8; normalised to positive control 25 μM) was 99% and the half-life at 0.25 µM [6] was under 0.5 h. For the same compound, the “conversion of prodrug to parent compound” value [6] was “fast conversion”, the “% remaining” value ([6]; time 0 hr) was 100% and the “% remaining” value ([6]; time 0.25 hr) was 73.8%. For the same compound, the “% remaining” value ([6]; time 0.5 hr) was 33.2%, the “% remaining” value ([6]; time 1 hr) was 11.1% and the “% remaining” value ([6]; time 2 hr) was 11.8%.
For `Cc1cc(F)ccc1Oc1cc(C(F)(F)F)ccc1C(=O)Nc1ccn(COP(=O)(O)O)c(=O)c1` [Compound 20, (4-(2-(4-fluoro-2-methylphenoxy)-4-(trifluoromethyl)benzamido)-2-oxopyridin-1(2H)-yl)methyl dihydrogen phosphate, reference compound], the half-life at 0.25 µM [6] was under 0.5 h, the “conversion of prodrug to parent compound” value [6] was “fast conversion” and the “% remaining” value ([6]; time 0 hr) was 100%. The “% remaining” value ([6]; time 0.25 hr) was 75.1%, the “% remaining” value ([6]; time 0.5 hr) was 32.7% and the “% remaining” value ([6]; time 1 hr) was 11.2%. The “% remaining” value ([6]; time 2 hr) was 11.6%.

Source: US11358977B2, “Deuterated pyridone amides and prodrugs thereof as modulators of sodium channels” (VERTEX PHARMACEUTICALS INCORPORATED, priority 2017, dated 2022)
